Entries after “also recorded” stand apart in the source; their conditions may differ. Read-outs that look alike come from different tables or passages of the source.
What was measured:
CT26 colon cancer = CT26 colon cancer model; assay type: in vivo, mouse; details: CT26 subcutaneous tumors
[1] = test system: IL-8 induced neutrophil migration; assay: IL-8 driven murine air pouch model; assay type: in vivo; details: mouse; Compound BB 0.1, 0.3, 1, 3 mg/kg; Compound AA 10, 25, about 50 mg/kg; vs vehicle
From the text: IL-8 chemoattracts and activates neutrophils.

[2] = test system: LPS-induced neutrophil influx into BALF; assay: LPS-induced neutrophilia in rats, oral administration; assay type: in vivo; details: rat, p.o., 4 hours post-LPS challenge; dose dependent
Procedure: This study also includes assessment of the exposure to the compounds in plasma and lung tissues.
Ref C is budesonide p.o. The compound was administered p.o. and about 1 hour later, LPS was administered intra-tracheally and plasma was collected. After about 5 hours, plasma and bronchoalveolar lavage samples were collected.

[3] = test system: CXCL12 induced p-AKT in bone marrow derived macrophages; assay: CXCL12-induced p-AKT induction assay in differentiated, polarized macrophages; assay type: cell-based, mouse; details: Mus musculus, Macrophage
From the text: Long bones from young C57B6 mice were harvested and bone marrow was extruded by gentle lavage of the bone marrow cavities with a 28 gauge needle. Red blood cells were removed using red blood cell lysis buffer (Sigma). Bone marrow cells were differentiated to macrophages using MCSF for 6 days (RPMI and 20% FCS) with one media change (with removal of all non-adherent cells) at day 3. Macrophages were polarized into M0 (MCSF), M1 (MCSF, IFNγ, and LPS for 1 day), or M2 (MCSF, IL4 for 2 days).
Polarized macrophages were lifted with Acutase, and plated at 0.5M cells per well (0.5 ml) in a deep well (2 ml) non adherant plate in polarization media for 1 hour. […] CXCL12 was added, and the cells were mixed on a plate shaker for 2 minutes. 1 ml of 37 degree FACS Lyse/fix buffer (BD bioscience) was added and the plate was mixed for 1 minute. The plates were spun and decanted and frozen at −80° C. Phospho AKT staining with anti Phospho AKT 473 PERCP labeled (Cell Signaling Technologies) was performed and measured by flow cytometry. Total cell MFI was used to calculate the effect of tested compound on CXCL12 induction of phospho AKT.

[4] = Pharmacokinetics of Compound BB, single and repeat oral dose in CB6F1 female mice; assay type: in vivo, mouse; details: CB6F1 female mice, 2, 7.5, 15 mg/kg PO
Procedure: Animals were weighed daily prior to dosing. […] On subsequent dosing days, the animals' condition was noted prior to dosing; the animals were observed within 4 hours of dosing, and at the end of the day.
Samples were collected at pre-dose 0.25, 0.5, 1, 2, 4, 6 and 24 h following the first dose on day 1 and pre-dose (trough), 0.25, 0.5, 1, 2, 4, 6 and 24 h following the final dose on day 3. Animals received a single oral dose daily for 3 consecutive days. Blood was collected by retro-orbital bleeding for all time points on day 1. All other blood sampling was collected by a cardiac puncture. Blood was collected into K2EDTA tubes and placed on wet ice. Within 15 min of collection, the sample was centrifuged at 10,000 rpm at 4° C. for 10 min in a bench top centrifuge and the plasma transferred to a new microcentrifuge tube.

[5] = test system: T cell activation (IFN-γ in response to ConA); assay: T cell activation in human whole blood (Con-A, IFN-γ readout); assay type: cell-based; details: 24 hours, read-out: IC50, T cell activation as measured by inhibition of IFN-γ
Procedure: The purpose of this study is to evaluate the effect of various antigens (Con-A) in T cell activation in Human Whole Blood vs. 1:1 Diluted Blood using test compounds at 24 hour time-point.
T-cell Activation Media includes RPMI-1000 ml, MEM NEAA-10 ml, Sodium Pyruvate (100 mM)-10 ml, Pen Strep-10 ml, 2-Mercaptoethanol-1 ml, and FBS-100 ml. 100 ul of whole blood were plated in 96 well plate. Used only the 60 inside wells and filled the outside with media or PBS. Diluted human whole blood with 5% Serum RPMI 1640 1:1 and plate 100 ul in 96 well plate. Used only the 60 inside wells and filled the outside with media or PBS.
The compound was diluted using DMSO (Sigma hybridmax). For 1000 nM highest concentration starting from a 10 mM stock, added 300 ul of DMSO into deep well plates. To the highest concentration add 10 ul of 10 mM compound stock.
A media plate was prepared from DMSO plate by taking 100 ul and go into 900 ul media in new deep well plate, taping plate, and putting on mixer for 5 minutes.
The rested cell plates were removed from incubator. Added 12 uL of diluted compound from media plate (final DMSO is 1%), and incubated for 45 minutes.
Con-A was prepared as follows: 200 ul stock into 1 ml Media, 100 ul of that into 1 ml Media, 100 ul of that into 1 ml Media. […] This was analyzed after 24 Hours.
10× stock in media, added 12 ul per well. […] Analyzed with multiplex elisa from MSD. […]

[6] = test system: differentiation of myeloid cells into M2 TAMs; assay: Murine M2 TAM differentiation (ARG1 levels); assay type: cell-based, mouse
From the text: High ARG1 (Arginase-1) levels indicate that myeloid cells are differentiating into M2 macrophages, so lower ARG1 levels relative to a control indicate interference with differentiation into M2 macrophages. Expression of Arginase-1 depletes the tumor microenvironment of arginine, thereby promoting T cell death and NK cell inhibition. Schmid et. al., Proceedings: AACR 103rd Annual Meeting 2012, Cancer Research: Apr. 15, 2012; Volume 72, Issue 8, Supplement 1. […] M2 TAMs promote cancer cell survival (FIG. 23).

[7] = test system: bone marrow cells differentiating into MDSCs; assay: Myeloid Derived Suppressor Cell differentiation assay (VEGF, ARG1); assay type: cell-based
Procedure: A similar experiment was performed on bone marrow cells differentiating into MDSCs.

[8] = Oral pharmacokinetics of Compound BB in monkey; assay type: in vivo; details: 5 mg/kg oral
From the text: Compound BB's oral exposure is high in rat, dog and monkey. Good oral bioavailability and low clearance in rodent and non-rodent animal species results in high oral exposure.

GL261-Luc = GL261-Luc murine glioblastoma subcutaneous model; assay type: in vivo, mouse; details: GL-261 syngeneic glioma, 15 mg/kg QD, PO
From the text: In some cases, the GL261 glioblastoma model is used. This is a syngeneic glioblastoma multiform model run subcutaneously or orthotopically, and is described in more detail in the examples provided herein. In some embodiments, the model has previously been treated with radiation therapy but there is a recurrence of the cancer. Compounds provided herein can be administered to models with a recurrence or relapse of cancer after prior treatment.

With C[C@H](NC(=O)c1c(N)nn2cccnc12)c1cc2cccc(C#Cc3cnn(C)c3)c2c(=O)n1-c1ccccc1 [Compound BB] the “Monocytic iMCs in tumor” value (CT26 colon cancer) was “decreased”, the “IL-8 induced neutrophil migration into air pouch” value [1] was “blocks IL-8 induced neutrophil migration” and the “Neutrophil in bronchoalveolar lavage fluid (BALF)” value [2] was “reduced neutrophil in bronchoalveolar lavage fluid (BALF); also recorded: more profound effect on neutrophil influx”. For the same compound, the IC50 ([3]; read-out: IC50, CXCL12 induced p-AKT, differentiated and M1 polarized macrophage) was ~14 nM, the IC50 ([3]; read-out: IC50, CXCL12 induced p-AKT, differentiated and M2 polarized macrophage) was ~8.4 nM and the “Stability in serum (24-hour time course of unbound plasma concentration)” value [4] was “good stability in serum”. For the same compound, the IC50 [5] was 2500 nM, the “Differentiation of myeloid cells into M2 TAMs (ARG1 levels, FIG. 22)” value [6] was “inhibited M2 TAM differentiation much more effectively than PI3K-δ inhibitor” and the “VEGF and ARG1 in MDSC differentiation assay (FIG. 24)” value [7] was “suppressed both VEGF (FIG. 24A) and ARG1 (FIG. 24B)”. The “Oral exposure (plasma concentrations within 24 hours, FIG. 43)” value [8] was “high”, the “Total flux (FIG. 47B)” value (GL261-Luc) was “reduced the total flux” and the “Tumor volume (FIG. 47A)” value (GL261-Luc) was “reduced tumor volume”.
